Reference: patent US4731109A, “Herbicidal 2-haloacetanilides” (Monsanto Company, priority 1982, dated 1988)
Read-outs that look alike come from different tables or passages of the source.

What was measured:
Type in all cases: in vivo
[1] = tested on: Quackgrass; test: Greenhouse pre-emergence GR15/GR85 selectivity test
From the text: (§1) A good grade of top soil is placed in aluminum pans and compacted to a depth of three-eighths to one-half inch from the top of the pan. On the top of the soil is placed a number of seeds or vegetative propagules of various plant species. The soil required to level fill the pans after seeding or adding vegetative propagules is weighed into a pan. The soil and a known amount of the active ingredient applied in a solvent or as a wettable powder suspension are thoroughly mixed, and used to cover the prepared pans. […] As an alternative procedure, the overhead irrigation may be omitted. Observations are made about 2-3 weeks after seeding and treatment.
(§2) A further guide to the effectiveness of a chemical as a selective herbicide is the "selectivity factor" ("SF") for a herbicide in given crops and weeds. The selectivity factor is a measure of the relative degree of crop safety and weed injury and is expressed in terms of the GR15 /GR85 ratio, i.e., the GR15 rate for the crop divided by the GR85 rate for the weed, both rates in kg/ha (lb/A). In the tables below, selectivity factors are shown in parenthesis following the GR85 rate for each weed; the symbol "NS" indicates "non-selective". Marginal or undetermined selectivity is indicated by a dash (--).
(§3) These weeds are commonly associated with such major crops as corn and soybeans. […] The test procedure was the same as described for Tables II and III but modified by the application of an initial overhead irrigation equivalent to 1/4" (0.64 cm) rainfall; subsequent watering was accomplished by subirrigation. "NS" means non-selective within the test limits.
(§4) Unless otherwise noted; greenhouse tests in Table VI and in other tables below involved herbicide treatments by soil incorporation and an initial overhead irrigation followed by subirrigation as described above.

[2] = tested on: Yellow Nutsedge; test: as above; conditions: Table IV
From the text: as §1, §2, §3, §4

[3] = tested on: common ragweed; test: as above; conditions: Table XV
Outline: (§5)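 Pre-emergence soil-incorporation test: seeded pans were covered with topsoil mixed with active ingredient (in solvent or as wettable powder), overhead-irrigated (0.64 cm) or not, then subirrigated. Plants were scored about 2-3 weeks after treatment. GR15/GR85 rates are in kg/ha, and selectivity factor is crop GR15 divided by weed GR85.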

[4] = tested on: common purslane; test: as above; conditions: Table XV
Outline: as §5

[5] = tested on: prickly sida; test: as above; conditions: Table XV
Outline: as §5

[6] = tested on: Barnyardgrass; test: Resistance to leaching and resulting herbicidal efficacy; conditions: for inhibition at 140 g/ha / inhibition at 560 g/ha / inhibition at 2200 g/ha: Echinochloa crus-galli, read-out: Percent Inhibition
Description: Laboratory tests were conducted to determine the resistance of herbicides according to this invention to leaching into the soil and resulting herbicidal efficacy. […] The pots containing the treated soil were subjected to leaching by placing on a turntable which rotated under two nozzle tips of a water container calibrated to deliver one inch (2.5 cm) of water per hour simulating rainfall. Leaching rates were adjusted by varying the amount of time on the turntable. Water was delivered to the soil in the pots and allowed to percolate through the filter paper and drainage holes. The pots were then allowed to sit for three days at ambient room temperature. The treated soil in the pots was then removed, crumbled and placed as a surface layer on top of other pots containing the above soils seeded with barnyardgrass seeds. The pots were then placed on greenhouse benches, sub-irrigated and allowed to grow for 2-3 weeks. Visual ratings of percent growth inhibition compared to control (untreated) pots and fresh weights for barnyardgrass were recorded; the data from the control represents six replications and that for the test compounds three replications; test data are shown in Table XVIII.

[7] = Ray silt loam, 0.14 Kg/Ha, rain 0 cm
[8] = Ray silt loam, 0.14 Kg/Ha, rain 1.27 cm
[9] = Ray silt loam, 0.14 Kg/Ha, rain 5.08 cm
[10] = Ray silt loam, 0.56 Kg/Ha, rain 0 cm
[11] = Ray silt loam, 0.56 Kg/Ha, rain 1.27 cm
[12] = Ray silt loam, 0.56 Kg/Ha, rain 5.08 cm
[13] = Ray silt loam, 0.56 Kg/Ha, rain 10.16 cm
[14] = Ray silt loam, 2.2 Kg/Ha, rain 0 cm
[15] = Ray silt loam, 2.2 Kg/Ha, rain 1.27 cm
[16] = Ray silt loam, 2.2 Kg/Ha, rain 5.08 cm
[17] = Ray silt loam, 2.2 Kg/Ha, rain 10.16 cm
[18] = Ray silt loam, 0.14 Kg/Ha, rain 10.16 cm

CC(C)OCN(C(=O)CCl)c1ccccc1C(F)(F)F [Example 2, N--(isopropoxymethyl)-2'-trifluoromethyl-2-chloroacetanilide]
GR85 ([1]; Table IV, Replicate #1): 0.26 Kg/Ha
GR85 ([1]; Table IV, Replicate #2): 0.22 Kg/Ha
GR85 Rate ([1]; Table VI): 0.28 Kg/Ha
selectivity factor (GR15/GR85) ([1]; quackgrass in corn, Table IV, Replicate #1): 12
selectivity factor (GR15/GR85) ([1]; quackgrass in corn, Table IV, Replicate #2): 3.5
selectivity factor (GR15/GR85) ([1]; quackgrass in rape, Table VI): 7
selectivity factor (GR15/GR85) ([1]; quackgrass in snapbeans, Table VI): 8
selectivity factor (GR15/GR85) ([1]; quackgrass in soybeans, Table IV, Replicate #1): 6.5
selectivity factor (GR15/GR85) ([1]; quackgrass in soybeans, Table IV, Replicate #2): 7.5
GR85 ([2]; Replicate #1): 0.17 Kg/Ha
GR85 ([2]; Replicate #2): 0.20 Kg/Ha
selectivity factor (GR15/GR85) ([2]; yellow nutsedge in corn, Replicate #1): 18
selectivity factor (GR15/GR85) ([2]; yellow nutsedge in corn, Replicate #2): 4
selectivity factor (GR15/GR85) ([2]; yellow nutsedge in soybeans, Replicate #1): 10
selectivity factor (GR15/GR85) ([2]; yellow nutsedge in soybeans, Replicate #2): 8.5

Cc1cccc(C(F)(F)F)c1N(COCC(C)C)C(=O)CCl [Example 5, N--(isobutoxymethyl)-2'-trifluoromethyl-6'-methyl-2-chloroacetanilide]
GR85 Rate [3]: 0.98 Kg/Ha
selectivity factor (GR15/GR85) ([3]; in rape): > 1.1
GR85 Rate [4]: > 1.12 Kg/Ha
GR85 Rate [5]: > 1.12 Kg/Ha
inhibition at 140 g/ha ([6]; Drummer silt clay, 0.14 Kg/Ha, rain 0 cm): 12%
inhibition at 140 g/ha ([6]; Drummer silt clay, 0.14 Kg/Ha, rain 1.27 cm): 26%
inhibition at 140 g/ha ([6]; Drummer silt clay, 0.14 Kg/Ha, rain 5.08 cm): 20%
inhibition at 140 g/ha ([6]; Drummer silt clay, 0.14 Kg/Ha, rain 10.16 cm): 12%
inhibition at 560 g/ha ([6]; Drummer silt clay, 0.56 Kg/Ha, rain 0 cm): 50%
inhibition at 560 g/ha ([6]; Drummer silt clay, 0.56 Kg/Ha, rain 1.27 cm): 100%
inhibition at 560 g/ha ([6]; Drummer silt clay, 0.56 Kg/Ha, rain 5.08 cm): 93%
inhibition at 560 g/ha ([6]; Drummer silt clay, 0.56 Kg/Ha, rain 10.16 cm): 84%
inhibition at 2200 g/ha ([6]; Drummer silt clay, 2.2 Kg/Ha, rain 0 cm): 100%
inhibition at 2200 g/ha ([6]; Drummer silt clay, 2.2 Kg/Ha, rain 1.27 cm): 100%
inhibition at 2200 g/ha ([6]; Drummer silt clay, 2.2 Kg/Ha, rain 5.08 cm): 100%
inhibition at 2200 g/ha ([6]; Drummer silt clay, 2.2 Kg/Ha, rain 10.16 cm): 100%
inhibition at 140 g/ha [6, 7]: 84%
inhibition at 140 g/ha [6, 8]: 90%
inhibition at 140 g/ha [6, 9]: 58%
inhibition at 560 g/ha [6, 10]: 99%
inhibition at 560 g/ha [6, 11]: 99%
inhibition at 560 g/ha [6, 12]: 90%
inhibition at 560 g/ha [6, 13]: 72%
inhibition at 2200 g/ha [6, 14]: 100%
inhibition at 2200 g/ha [6, 15]: 100%
inhibition at 2200 g/ha [6, 16]: 99%
inhibition at 2200 g/ha [6, 17]: 84%
inhibition at 140 g/ha [6, 18]: 29%
Fresh Weight [6, 7]: 0.66 Grams
Fresh Weight [6, 8]: 0.43 Grams
Fresh Weight [6, 9]: 1.72 Grams
Fresh Weight [6, 18]: 2.92 Grams
Fresh Weight [6, 10]: 0.04 Grams
Fresh Weight [6, 11]: 0.02 Grams
Fresh Weight [6, 12]: 0.41 Grams
Fresh Weight [6, 13]: 1.17 Grams
Fresh Weight [6, 14]: 0 Grams
Fresh Weight [6, 15]: 0 Grams
Fresh Weight [6, 16]: 0.03 Grams
Fresh Weight [6, 17]: 0.64 Grams
